Data set [1] has as its system Plasmodium falciparum. As to the kind of experiment: NOVARTIS: Inhibition of Plasmodium falciparum 3D7 (drug-susceptible) proliferation in erythrocyte-based infection assay. It counts as functional, organism-based. Particulars: Plasmodium falciparum, 3D7.
Data set [2] deals with Plasmodium falciparum. Put plainly: NOVARTIS: Inhibition of Plasmodium falciparum W2 (drug-resistant) proliferation in erythrocyte-based infection assay. It counts as functional, organism-based. Particulars: Plasmodium falciparum, W2; read-out: EC50.
Data set [3] is described as follows: NOVARTIS: Cytotoxicity against human hepatocellular carcinoma cell line (Huh7). Format: toxicity, cell-based, Huh-7. Particulars: Huh7 cells (hepatocellular carcinoma cell line).

Some results are limits rather than exact numbers.

For the molecule `CC1CC(C)CN(CCCNc2ccc(C(=O)Nc3ccc(C(F)(F)F)cc3)cc2[N+](=O)[O-])C1` (configuration not stated), the EC50 is 0.119 µM with Plasmodium falciparum [1] and 0.401 µM with Plasmodium falciparum [2]. In addition, the CC50 in data set [3] is over 100 µM.
`O=C(N1CCCCC1)n1nnc2ccccc21`: the concentration for a half-maximal effect (EC50) in the data set with Plasmodium falciparum [1] turned out to be 1.31 µM; with Plasmodium falciparum [2], 0.396 µM. Besides, the CC50 in data set [3] is over 100 µM.
As for `CCC(C)NCC(O)(c1ccc(Cl)cc1)c1ccc(Cl)cc1` (configuration not stated), the concentration giving a half-maximal response (EC50) in the data set with Plasmodium falciparum [1] came to 0.639 µM; in the data set on Plasmodium falciparum [2] it was 0.184 µM. The molecule further registered a cytotoxic concentration (CC50) in data set [3] of 46.3 µM.
On to `COc1ccc(-n2nc(C(=O)NCc3ccccc3OC)c3ccccc3c2=O)cc1`, for which the EC50 in the data set with Plasmodium falciparum [1] was determined as 0.377 µM; with Plasmodium falciparum [2] it was 0.39 µM. Moreover, the CC50 in data set [3] was over 100 µM.
For the molecule `Fc1cccc2sc(Nc3nc(-c4ccccn4)cs3)nc12`, the 50% effective concentration (EC50) in the data set on Plasmodium falciparum [1] amounted to 0.321 µM; with Plasmodium falciparum [2], 0.0958 µM. In addition, the 50% cytotoxic concentration (CC50) in data set [3] is 24.7 µM.
The like results for `CCC1(C)CC(CCNCc2ccccc2O)(c2ccccc2OC)CCO1` (configuration not stated) were, in that order, 0.348 µM, 0.0961 µM and 23.9 µM.
Turning to `CCOc1cc(-c2nnc3[nH]c(=O)n(C)c(=O)c3n2)ccc1OC(C)C`, the half-maximal effective concentration (EC50) in the data set with Plasmodium falciparum [1] was determined as 1.1 µM; in the data set with Plasmodium falciparum [2] it was 0.394 µM. In data set [3], this molecule returned a CC50 of over 100 µM.
For `CC(=O)Oc1ccccc1-c1nc2ccccn2c1NC(C)(C)CC(C)(C)C`, the concentration giving a half-maximal response (EC50) in the data set with Plasmodium falciparum [1] came out at 0.489 µM; in the data set on Plasmodium falciparum [2] it was 0.0367 µM. The CC50 in data set [3] is over 9.44 µM.
As to `Nc1c(C(=O)Nc2ccc(F)cc2)sc2nc3c(c(-c4cccs4)c12)CCCCC3`, the values for the EC50 with Plasmodium falciparum [1] and in the data set with Plasmodium falciparum [2] were 0.937 µM and 0.388 µM, respectively. In data set [3], this molecule displayed a CC50 of over 100 µM.
As to `C=CC[N+]1(CC#Cc2cccc3ccccc23)CCCCC1`, the concentration for a half-maximal effect (EC50) in the data set with Plasmodium falciparum [1] was 0.683 µM; in the data set with Plasmodium falciparum [2] it was 0.396 µM. The same molecule yielded a CC50 in data set [3] of over 100 µM.
For the molecule `CC(C)CCNCC(O)Cn1c2ccccc2c2ccccc21` (configuration not stated), the figures for the 50% effective concentration (EC50) with Plasmodium falciparum [1] and with Plasmodium falciparum [2] were 0.201 µM and 0.0323 µM, respectively. The 50% cytotoxic concentration (CC50) in data set [3] is 8.06 µM.
Take `CCCC(=O)N1CCN(c2nc(Cc3ccccc3)c3c(c2C#N)CC(C)(C)OC3)CC1`: the concentration giving a half-maximal response (EC50) with Plasmodium falciparum [1] was 0.324 µM; in the data set with Plasmodium falciparum [2] it was 0.363 µM. Also, the CC50 in data set [3] is over 90.9 µM.
Turning to `Cc1c(C)n(Cc2ccc(F)cc2)c2ccc(C(=O)NCc3ccco3)cc12`, the results for the half-maximal effective concentration (EC50) with Plasmodium falciparum [1] and in the data set with Plasmodium falciparum [2] were 0.0782 µM and 0.399 µM, respectively. In data set [3], this molecule gave a CC50 of over 100 µM.
With `CCOc1cc2c(cc1OCC)C(c1cc(Cl)ccc1O)NCC2` (configuration not stated), the EC50 came to 0.404 µM with Plasmodium falciparum [1] and 0.0964 µM in the data set with Plasmodium falciparum [2]. Besides, it took 24.2 µM to reach half-maximal cytotoxicity in data set [3] (CC50).
On to `C#CCNC(=O)c1ccc(OC2CCN(CC3CCCCC3)CC2)c(Cl)c1`, for which the EC50 with Plasmodium falciparum [1] was determined as 0.499 µM; in the data set on Plasmodium falciparum [2] it was 0.396 µM. The same molecule returned a CC50 in data set [3] of over 100 µM.
Turning to `CN(CCCNc1ccnc2cc(Cl)ccc12)C(=O)COc1ccc(Cl)cc1`, the EC50 in the data set on Plasmodium falciparum [1] was found to be 0.0592 µM; in the data set on Plasmodium falciparum [2] it was 0.0785 µM. This molecule showed a CC50 in data set [3] of 20.3 µM.
In the same order, the values of `C=CCn1nc(C(=O)N2CCCC2)c2c1CCC(N1CCCCCC1)C2` (configuration not stated) are 0.772 µM, 0.0398 µM and over 10 µM.
Turning to `COc1ccc(-c2csc(Nc3cccc(Cl)c3C)n2)cc1OC`, the values for the EC50 with Plasmodium falciparum [1] and with Plasmodium falciparum [2] were 8.21 µM and 0.355 µM, respectively. Further, in data set [3], the half-maximal cytotoxic concentration (CC50) was over 89.3 µM.
For the molecule `O=C(c1ccc([N+](=O)[O-])cc1)N1CCC(c2nc(O)c3nnn(Cc4c(F)cccc4Cl)c3n2)CC1`, the half-maximal effective concentration (EC50) in the data set with Plasmodium falciparum [1] is 0.21 µM; with Plasmodium falciparum [2] it was 0.401 µM. In data set [3], this molecule gave a CC50 of over 100 µM.
Turning to `COc1ccc2c(c1)N(C(=O)CSc1nc3ccccc3o1)C(C)(C)c1ssc(=S)c1-2`, the EC50 worked out at 0.345 µM with Plasmodium falciparum [1] and 0.392 µM in the data set on Plasmodium falciparum [2]. In addition, in data set [3], the cytotoxic concentration (CC50) was over 100 µM.
As to `C=CCc1cc(C=c2sc3n(c2=O)C(c2ccccc2)C(C(=O)OCC)=C(C)N=3)cc(OC)c1O` (configuration not stated), the EC50 in the data set on Plasmodium falciparum [1] turned out to be 2.5 µM; in the data set on Plasmodium falciparum [2] it was 0.391 µM. The same molecule had a CC50 in data set [3] of over 100 µM.
The like results for `CCN1CCN(c2nc3ccccn3c(=O)c2C=C2SC(=S)N(C(C)C)C2=O)CC1` were, in that order, 0.701 µM, 0.304 µM and 79 µM.
Regarding `COc1ccc2nc(C)cc(NN=Cc3cccc(OC)c3O)c2c1`, the EC50 with Plasmodium falciparum [1] is 0.0251 µM; in the data set on Plasmodium falciparum [2], 0.0235 µM. In data set [3], this molecule showed a 50% cytotoxic concentration (CC50) of 6.12 µM.
Consider `O=C1CC(c2ccc(O)cc2)C2=C(CC(c3ccccc3Cl)CC2=O)N1` (configuration not stated), for which the concentration for a half-maximal effect (EC50) worked out at 0.672 µM in the data set with Plasmodium falciparum [1] and 0.391 µM in the data set with Plasmodium falciparum [2]. For the same molecule, the half-maximal cytotoxic concentration (CC50) in data set [3] is over 100 µM.
Regarding `Cc1c(Cl)cccc1NC(=S)N1CCCN(c2ccc(C(F)(F)F)cc2[N+](=O)[O-])CC1`, the concentration for a half-maximal effect (EC50) in the data set with Plasmodium falciparum [1] was 0.254 µM; in the data set on Plasmodium falciparum [2], 0.202 µM. Moreover, the CC50 in data set [3] worked out at 51.4 µM.
The like results for `Cn1c(SCCCCNC(=O)c2cc([N+](=O)[O-])cc([N+](=O)[O-])c2)nc(-c2ccccc2)c1-c1ccccc1` were, in that order, 1.41 µM, 0.0337 µM and over 8.57 µM.
In the case of `Cc1ccn2c(NC(C)(C)CC(C)(C)C)c(-c3ccccc3OC(=O)c3cccs3)nc2c1`, the EC50 in the data set with Plasmodium falciparum [1] turned out to be 0.667 µM; in the data set with Plasmodium falciparum [2], 0.0393 µM. The CC50 in data set [3] is over 10 µM.
For `CC(C)CSc1nc2sc3c(c2c(=O)n1-c1ccccc1)CCN(Cc1ccccc1)C3`, the EC50 came out at 0.945 µM in the data set with Plasmodium falciparum [1] and 0.392 µM with Plasmodium falciparum [2]. The molecule also displayed a CC50 in data set [3] of over 100 µM.
As to `CN(C)CCNc1c2c(nc3ccccc13)CCC2`, the EC50 in the data set on Plasmodium falciparum [1] was 0.579 µM; in the data set with Plasmodium falciparum [2], 0.241 µM. The same molecule returned a cytotoxic concentration (CC50) in data set [3] of 61.4 µM.
For `Cc1ccc(-c2nn3c(O)c4c(nc3c2C)CCCC4)cc1`, the EC50 is 0.256 µM in the data set on Plasmodium falciparum [1] and 0.384 µM in the data set on Plasmodium falciparum [2]. Moreover, the CC50 in data set [3] is over 100 µM.
With `C=CCn1c(=N)n(CC(O)c2ccc(Cl)c(Cl)c2)c2ccccc21` (configuration not stated), the EC50 with Plasmodium falciparum [1] amounted to 0.141 µM; with Plasmodium falciparum [2] it was 0.0583 µM. The molecule also showed a CC50 in data set [3] of 14.7 µM.
As to `Cc1cc(=O)oc2c1ccc1oc(C(=O)c3ccccc3)c(C)c12`, the EC50 with Plasmodium falciparum [1] came out at 0.441 µM; with Plasmodium falciparum [2], 0.392 µM. The same molecule registered a CC50 in data set [3] of over 100 µM.
As for `CCC1CCCCN1C(=O)C1CC(=O)N(c2ccc(OC)cc2)C1c1ccc(OC)cc1` (configuration not stated), the values for the EC50 in the data set on Plasmodium falciparum [1] and with Plasmodium falciparum [2] were 0.387 µM and 0.394 µM, respectively. Besides, the CC50 in data set [3] is over 100 µM.
With `COc1cc(C=NNc2nc3ccccc3[nH]2)cc(OC)c1OC`, the results for the concentration giving a half-maximal response (EC50) in the data set with Plasmodium falciparum [1] and with Plasmodium falciparum [2] were 0.176 µM and 0.339 µM, respectively. The midpoint of cytotoxicity in data set [3], the CC50, lay at 87.5 µM.
In the case of `O=C(NC(=CC=Cc1ccccc1)C(=O)N1CCCCC1)c1ccc([N+](=O)[O-])cc1`, the 50% effective concentration (EC50) in the data set with Plasmodium falciparum [1] worked out at 8.29 µM; with Plasmodium falciparum [2], 0.392 µM. The molecule also displayed a cytotoxic concentration (CC50) in data set [3] of over 100 µM.
In the case of `CCC12C(=O)C(CC)(C(c3ccccc3)=C1c1ccccc1)C1C(=O)N(c3cccc(C(F)(F)F)c3)C(=O)C12` (configuration not stated), the concentration for a half-maximal effect (EC50) with Plasmodium falciparum [1] was 2.41 µM; in the data set with Plasmodium falciparum [2], 0.401 µM. For the same molecule, the CC50 in data set [3] was over 100 µM.
Consider `O=C(Nc1ccc(-c2nc3ccccc3[nH]2)cc1)c1cccc(C(=O)Nc2ccc(-c3nc4ccccc4[nH]3)cc2)n1`, for which the figures for the concentration giving a half-maximal response (EC50) in the data set with Plasmodium falciparum [1] and with Plasmodium falciparum [2] were 0.121 µM and 0.126 µM, respectively. In addition, the cytotoxic concentration (CC50) in data set [3] was 31.7 µM.
For the molecule `Cc1onc(-c2ccccc2)c1C(=O)N1CCC(CNc2c(-c3ccc(F)cc3)nc3ccccn23)CC1`, the concentration giving a half-maximal response (EC50) in the data set with Plasmodium falciparum [1] stood at 0.674 µM; in the data set with Plasmodium falciparum [2], 0.178 µM. This molecule also registered a CC50 in data set [3] of 45 µM.
On to `C=CCn1c(=O)c(C(=O)NCC[N+](CC)(CC)CC=C)c(O)c2ccccc21`, for which the values for the EC50 in the data set with Plasmodium falciparum [1] and in the data set with Plasmodium falciparum [2] were 1.13 µM and 0.385 µM, respectively. In data set [3], this molecule returned a CC50 of over 100 µM.

The values are drawn from ChEMBL document CHEMBL1156829 (Proc Natl Acad Sci U S A, 2008).
